In a melting point compilation (Tetko et al.; mined from patent text by program, amines drawn as free bases though some values may be those of a salt):

Structure (SMILES)	melting point [°C]
CC(=O)NCCCc1cccc2c1CCO2	66 to 67
C[C@@H]1N=C(c2ccccc2Cl)c2cc(N)ccc2N(C)C1=O	221
O=C(O)CCSC1c2cc(OCc3ccc4ccc(Cl)cc4n3)ccc2OCc2c(-c3nnn[nH]3)cccc21 (stereo not drawn)	122 to 125
O=C(O)c1nn(-c2ccc(Cl)cc2Cl)c2c1CCc1cc(C(F)(F)F)ccc1-2	245
CC(=O)Nc1ccc(C(=O)N2CCN(CCc3ccc(Cl)cc3)CC2)cc1	147 to 149
Cc1ccc(O)c(NC(=O)c2ccc(OCCCCc3ccccc3)cc2)c1	138 to 140
CC(C)C(NC(=O)OCCN1CCOCC1)C(=O)NC(Cc1ccccc1)C(O)C(Cc1ccccc1)NC(=O)C(NC(=O)OCc1ccccc1)C(C)C (stereo not drawn)	159 to 161
CCS(=O)(=O)CCC(=O)NNC(=O)N1Cc2ccccc2Oc2ccc(F)cc21	191 to 193
Cc1cc(SC(C)C)c(NC(=O)CCCCSc2nc3ccccc3o2)c(SC(C)C)n1	129 to 130
CCCCC1=NC2(CCCC2)C(=O)N1Cc1ccc(-c2ccccc2S(=O)(=O)Nc2onc(C)c2C)c(OCC(C)C)c1	58 to 61
CC(C(=O)O)c1ccc2c(-c3ccc(Cl)cc3)noc2c1 (stereo not drawn)	176 to 179
CCc1cc(C(=O)OC)nn1C	188 to 191
CC(Br)CCCCN1C(=O)c2ccccc2C1=O (stereo not drawn)	48 to 51
CN1CCC(OC2c3cccc(Cc4ccccc4)c3CCn3cc(-c4ccccc4)nc32)CC1 (stereo not drawn)	66
C1=C(c2c[nH]c3ccccc23)CCNC1	185 to 186
O=C(Nc1ccccc1)c1ccc(Cn2cnc3ccccc32)cc1	214 to 216
CCNc1ccc(NCCO)cc1[N+](=O)[O-]	106
CN(C)c1ccc2nc(N)c(C#N)c(O)c2c1	360
Cn1c(C(F)(F)F)ccc(-c2cc(S)c(Cl)cc2F)c1=O	141 to 142
CN1C(=O)CCC2(C)C3CCC4(C)C(OC(=O)NCc5ccccc5)CCC4C3CCC12 (stereo not drawn)	216 to 217
Cc1noc(-c2cn(-c3cccc(-c4ccccc4)c3)cn2)n1	163 to 165
CCOCC1COc2cc3c(O)c(C(=O)OCC)cnc3cc2O1 (stereo not drawn)	266 to 268
CCCCOC(=O)c1cc([N+](=O)[O-])c(Cl)c(S(N)(=O)=O)c1	140 to 141
NC(=O)C1(CC23CC4CC(CC(C4)C2)C3)C=C(O)C=CC1Cl (stereo not drawn)	263 to 264

Second part, the molecule after the results:

melting point [°C]	Structure (SMILES)
194 to 196	COC(=O)c1ccc(OC)nc1S(=O)(=O)NC(=O)Nc1nc(OC)cc(OC)n1
280 to 281	CCC(=C(c1ccc(O)cc1)c1ccc(O)cc1)c1cccc(/C=C/C(=O)O)c1
> 300	COc1cc2cc3c(Cl)c(C#N)cnc3cc2cc1O
156 to 160	COc1cc(OC)c(-c2c[nH]c(C3CC3)n2)cc1C=CC(=O)c1ccc(S(N)(=O)=O)cc1
158 to 160	CS(=O)(=O)c1ccc(-c2cc(F)c(F)cc2Br)cc1
122	COC(=O)c1cc2cc(C(=O)c3cccc(C(C)C(=O)OC)c3)sc2s1 (stereo not drawn)
113 to 114	COc1ccc(/C=C/CCCCOc2ccc(C(=O)CCCC(=O)O)cc2CCC(=O)O)cc1
260 to 261	Nc1c(-c2ccc(Cl)cc2)nc2c(Cl)cc(Cl)cc2c1C(=O)O
184 to 185	NS(=O)(=O)c1ccc(-c2cnn(CC=C(Cl)Cl)c(=O)c2-c2ccc(F)cc2)cc1
103 to 104	COc1ccc2cc([C@H](C)C(=O)OCC(=O)N(C)CC(=O)OC(C)(C)C)ccc2c1
141 to 143	CCCNC(=O)C1Cc2[nH]c3ccc(OC)cc3c2C1 (stereo not drawn)
125 to 127	CCCCOCCOc1ccc(-c2ccc(N(C)Cc3cnn(C)c3)c(C=CC(=O)O)c2)cc1
97 to 98	COC(=O)CCc1cc(C(=O)c2cccc(C(=O)OC)n2)ccc1OC
97 to 99	COC(=O)c1cccnc1Oc1ccc(F)cc1
